Data reported in patent US20090221653A1, “7-(2-amino-1-hydroxy-ethyl)-4-hydroxybenzothiazol-2(3H)-one-derivatives as beta2 adrenoreceptor agonists” (AstraZeneca AB, priority 2005, published 2009).
Where a name gives a salt, the structure may show the parent alone. Read-outs that look alike come from different tables or passages of the source.

Legend:
[1] = target: T1, recombinant human adrenergic beta 1 receptors (Homo sapiens, UniProt P08588); experiment: Adrenergic β1 selectivity assay, inhibition of [125I]-Iodocyanopindolol binding
T1 construct: purchased Euroscreen
Description: (§1) Membranes containing recombinant human adrenergic beta 1 receptors were obtained from Euroscreen. These were diluted in Assay Buffer (50 mM HEPES, 1 mM EDTA, 120 mM NaCl, 0.1% gelatin, pH 7.4) to provide a final concentration of membranes that gave a clear window between maximum and minimum specific binding.
Assays were performed in U-bottomed 96-well polypropylene plates. […] Membranes were then added to achieve a final volume of 100 μL. The plates were incubated for 2 hours at room temperature and then filtered onto PEI coated GF/B filter plates, pre-soaked for 1 hour in Assay Buffer, using a 96-well plate Tomtec cell harvester. Five washes with 250 μL wash buffer (50 mM HEPES, 1 mM EDTA, 120 mM NaCl, pH 7.4) were performed at 4° C. to remove unbound radioactivity. The plates were dried then sealed from underneath using Packard plate sealers and MicroScint-O (50 μL) was added to each well. The plates were sealed (TopSeal A) and filter-bound radioactivity was measured with a scintillation counter (TopCount, Packard BioScience) using a 3-minute counting protocol.
(§2) Total specific binding (B0) was determined by subtracting the mean NSB from the mean maximum binding. NSB values were also subtracted from values from all other wells.

[2] = target: T2, recombinant human α1D receptor (Homo sapiens, UniProt P25100); experiment: Adrenergic α1D selectivity assay, inhibition of [3H]-prazosin binding; conditions: HEK293 membranes, [3H]-prazosin 0.3 nM; read-out: α1 bind pIC50 (converted)
T2 construct: expressed in transfected cells; host or cells: HEK293
T2 sequence (P25100 1-572): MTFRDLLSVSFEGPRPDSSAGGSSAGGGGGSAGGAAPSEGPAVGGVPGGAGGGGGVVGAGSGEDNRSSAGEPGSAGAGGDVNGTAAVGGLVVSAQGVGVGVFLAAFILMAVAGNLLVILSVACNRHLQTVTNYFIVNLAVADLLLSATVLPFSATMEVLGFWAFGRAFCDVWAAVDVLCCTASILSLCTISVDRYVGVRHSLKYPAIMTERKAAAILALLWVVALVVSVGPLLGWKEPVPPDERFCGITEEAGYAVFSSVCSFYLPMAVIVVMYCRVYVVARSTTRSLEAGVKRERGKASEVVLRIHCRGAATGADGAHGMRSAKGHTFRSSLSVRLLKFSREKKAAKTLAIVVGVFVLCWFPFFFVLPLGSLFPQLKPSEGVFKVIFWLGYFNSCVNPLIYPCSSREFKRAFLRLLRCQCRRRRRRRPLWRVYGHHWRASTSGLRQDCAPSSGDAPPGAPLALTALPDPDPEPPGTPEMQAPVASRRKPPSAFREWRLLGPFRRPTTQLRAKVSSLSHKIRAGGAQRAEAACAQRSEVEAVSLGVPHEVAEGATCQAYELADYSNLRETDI
Description: Membranes were prepared from human embryonic kidney 293 (HEK293) cells expressing recombinant human α1D receptor. These were diluted in Assay Buffer (50 mM HEPES, 1 mM EDTA, 0.1% gelatin, pH 7.4) to provide a final concentration of membranes that gave a clear window between maximum and minimum specific binding.
Assays were performed in U-bottomed 96-well polypropylene plates. 10 μL [^3H]-prazosin (0.3 nM final concentration) and 10 μL of test compound (10× final concentration) were added to each test well. For each assay plate 8 replicates were obtained for [^3H]-prazosin binding in the presence of 10 μL vehicle (10% (v/v) DMSO in Assay Buffer; defining maximum binding) or 10 μL BMY7378 (10 μM final concentration; defining non-specific binding (NSB)). Membranes were then added to achieve a final volume of 100 μL. The plates were incubated for 2 hours at room temperature and then filtered onto PEI coated GF/B filter plates, pre-soaked for 1 hour in Assay Buffer, using a 96-well plate Tomtec cell harvester. Five washes with 250 μL wash buffer (50 mM HEPES, 1 mM EDTA, pH 7.4) were performed at 4° C. to remove unbound radioactivity. The plates were dried then sealed from underneath using Packard plate sealers and MicroScint-O (50 μL) was added to each well. The plates were sealed (TopSeal A) and filter-bound radioactivity was measured with a scintillation counter (TopCount, Packard BioScience) using a 3-minute counting protocol.
as §2

Adrenergic β2 = target: T3, Adrenergic β2 (Homo sapiens, UniProt P07550); experiment: Alternative Adrenergic β2 Mediated cAMP Production in H292 cells (AlphaScreen cAMP detection); type: cell-based; conditions: for EC50: cAMP, test compounds incubated 60 minutes, 300 μM rolipram, read-out: β2 pEC50 (converted); for β2 Int Act: fraction relative to the maximum activity determined for formoterol, 60 minutes incubation
T3 construct: endogenous in cells; host or cells: H292 cells
Description: H292 cells were grown in 225 cm2 flasks incubator at 37° C., 5% CO2 in RPMI medium containing, 10% (v/v) FBS (foetal bovine serum) and 2 mM L-glutamine.
Adherent H292 cells were removed from tissue culture flasks by treatment with Accutase™ cell detachment solution for 15 minutes. Flasks were incubated for 15 minutes in a humidified incubator at 37° C., 5% CO2. Detached cells were re-suspended in RPMI media (containing 10% (v/v) FBS and 2 mM L-glutamine) at 0.05×10^6 cells per mL. 5000 cells in 100 μL were added to each well of a tissue-culture-treated 96-well plate and the cells incubated overnight in a humidified incubator at 37° C., 5% CO2. The culture media was removed and cells were washed twice with 100 μL assay buffer and replaced with 50 μL assay buffer (HBSS solution containing 10 mM HEPES pH7.4 and 5 mM glucose). […] Cells were incubated with rolipram for 10 minutes after which time test compounds were added and the cells were incubated for 60 minutes at room temperature. […] The reaction was stopped by removing supernatants, washing once with 100 μL assay buffer and replacing with 50 μL lysis buffer. The cell monolayer was frozen at −80° C. for 30 minutes (or overnight).
The concentration of cAMP (cyclic adenosine monophosphate) in the cell lysate was determined using AlphaScreen™ methodology. The frozen cell plate was thawed for 20 minutes on a plate shaker then 10 μL of the cell lysate was transferred to a 96-well white plate. 40 μL of mixed AlphaScreen™ detection beads pre-incubated with biotinylated cAMP, was added to each well and the plate incubated at room temperature for 10 hours in the dark. The AlphaScreen™ signal was measured using an EnVision spectrophotometer (Perkin-Elmer Inc.) with the recommended manufacturer's settings. cAMP concentrations were determined by reference to a calibration curve determined in the same experiment using standard cAMP concentrations. Concentration response curves for agonists were constructed and data was fitted to a four parameter logistic equation to determine both the pEC50 and Intrinsic Activity.

[3] = target: T4, recombinant human Dopamine Subtype D2s receptors (Homo sapiens, UniProt P14416); experiment: Dopamine D2 selectivity assay, inhibition of [3H]-spiperone binding; conditions: membranes, [3H]-spiperone 0.16 nM; read-out: D2 bind pIC50 (converted)
T4 construct: purchased Perkin Elmer
Description: as §1, with “human Dopamine Subtype D2s” for “human adrenergic beta 1”, “from Perkin Elmer.” for “from Euroscreen.”, “([…]” for “(50 mM”
Assays were performed in U-bottomed 96-well polypropylene plates. […] For each assay plate 8 replicates were obtained for [^3H]-spiperone binding in the presence of 30 μL vehicle (10% (v/v) DMSO in Assay Buffer; defining maximum binding) or 30 μL Haloperidol (10 μM final concentration; defining non-specific binding (NSB)). Membranes were then added to achieve a final volume of 300 μL. The plates were incubated for 2 hours at room temperature and then filtered onto PEI coated GF/B filter plates, pre-soaked for 1 hour in Assay Buffer, using a 96-well plate Tomtec cell harvester. Five washes with 250 μL wash buffer (50 mM HEPES, 1 mM EDTA, 120 mM NaCl, pH 7.4) were performed at 4° C. to remove unbound radioactivity. The plates were dried then sealed from underneath using Packard plate sealers and MicroScint-O (50 μL) was added to each well. The plates were sealed (TopSeal A) and filter-bound radioactivity was measured with a scintillation counter (TopCount, Packard BioScience) using a 3-minute counting protocol. Total specific binding (B0) was determined by subtracting the mean NSB from the mean maximum binding. NSB values were also subtracted from values from all other wells.

[4] = membranes, [125I]-Iodocyanopindolol, read-out: β1 bind pIC50 (converted)

T1 sequence (P08588 whole entry): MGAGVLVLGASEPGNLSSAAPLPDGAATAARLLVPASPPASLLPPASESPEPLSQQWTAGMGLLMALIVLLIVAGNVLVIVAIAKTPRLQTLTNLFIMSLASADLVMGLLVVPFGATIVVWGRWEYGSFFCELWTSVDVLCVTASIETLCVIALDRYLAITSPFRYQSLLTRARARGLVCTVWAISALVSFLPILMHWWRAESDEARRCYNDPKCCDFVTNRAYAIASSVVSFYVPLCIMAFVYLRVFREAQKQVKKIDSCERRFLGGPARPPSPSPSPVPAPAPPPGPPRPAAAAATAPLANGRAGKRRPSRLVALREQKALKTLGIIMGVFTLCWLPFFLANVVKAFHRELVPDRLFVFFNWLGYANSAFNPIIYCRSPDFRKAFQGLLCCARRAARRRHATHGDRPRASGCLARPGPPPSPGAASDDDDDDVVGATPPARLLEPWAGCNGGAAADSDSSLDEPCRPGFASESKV
T3 sequence (P07550 whole entry): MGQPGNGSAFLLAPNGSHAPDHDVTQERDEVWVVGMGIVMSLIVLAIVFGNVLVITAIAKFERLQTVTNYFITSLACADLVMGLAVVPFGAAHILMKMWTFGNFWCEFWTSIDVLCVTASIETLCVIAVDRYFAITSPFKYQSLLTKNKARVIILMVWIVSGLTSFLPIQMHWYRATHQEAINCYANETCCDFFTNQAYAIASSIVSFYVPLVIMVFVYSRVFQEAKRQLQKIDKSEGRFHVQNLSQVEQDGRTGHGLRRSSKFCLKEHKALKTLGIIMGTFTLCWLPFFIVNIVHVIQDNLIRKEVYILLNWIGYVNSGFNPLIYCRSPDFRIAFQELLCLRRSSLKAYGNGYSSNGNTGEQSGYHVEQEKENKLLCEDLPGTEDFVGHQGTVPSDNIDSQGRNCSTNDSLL
T4 sequence (P14416 1-414 isoform P14416-2): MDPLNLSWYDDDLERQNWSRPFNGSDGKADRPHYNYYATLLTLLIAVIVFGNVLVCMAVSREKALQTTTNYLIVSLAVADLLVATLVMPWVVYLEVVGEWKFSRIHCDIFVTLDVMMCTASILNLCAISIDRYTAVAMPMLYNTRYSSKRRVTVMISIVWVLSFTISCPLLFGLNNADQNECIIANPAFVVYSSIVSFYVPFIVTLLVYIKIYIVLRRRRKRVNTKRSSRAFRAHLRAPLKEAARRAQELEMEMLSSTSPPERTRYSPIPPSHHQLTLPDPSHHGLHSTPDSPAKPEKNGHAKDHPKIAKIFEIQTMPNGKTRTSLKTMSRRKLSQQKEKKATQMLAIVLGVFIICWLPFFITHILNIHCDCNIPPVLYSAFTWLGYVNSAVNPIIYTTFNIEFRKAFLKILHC

IC50 [1, 4] [nM]	IC50 [2] [nM]	EC50 (Adrenergic β2) [nM]	β2 Int Act (Adrenergic β2)	IC50 [3] [nM]	Structure (SMILES)	IC50 [1] [nM]
25.1	100	0.316	0.9	3980	C[C@H](CNCCSCCCNC[C@H](O)c1ccc(O)c2[nH]c(=O)sc12)c1ccccc1 [Example 29, 4-Hydroxy-7-[(1R)-1-hydroxy-2-({3-[(2-{[(2S)-2-phenylpropyl]amino}ethyl)thio]propyl}amino)ethyl]-1,3-benzothiazol-2(3H)-one]	–
79.4	398	0.631	0.8	12600	CC(CNCCCSCCNC[C@H](O)c1ccc(O)c2[nH]c(=O)sc12)c1ccccc1 (mixture of isomers) [Example 44, (+/−)-7-[(1R)-2-({2-[(3-{[2-(phenyl)propyl]amino}propyl)thio]ethyl}amino)-1-hydroxyethyl]-4-hydroxy-1,3-benzothiazol-2(3H)-one dihydrochloride]	–
63.1	126	1	1	1000	C[C@@H](CNCCSCCCNC[C@H](O)c1ccc(O)c2[nH]c(=O)sc12)c1ccccc1 [Example 27, 4-Hydroxy-7-[(1R)-1-hydroxy-2-({3-[(2-{[(2R)-2-phenylpropyl]amino}ethyl)thio]propyl}amino)ethyl]-1,3-benzothiazol-2(3H)-one]	–
158	1580	1.26	0.9	3980	C[C@H](CNCCCSCCNC[C@H](O)c1ccc(O)c2[nH]c(=O)sc12)c1ccccc1 [Example 48, (S)-(−)-7-[(1R)-2-({2-[(3-{[2-(phenyl)propyl]amino}propyl)thio]ethyl}amino)-1-hydroxyethyl]-4-hydroxy-1,3-benzothiazol-2(3H)-one dihydrochloride]	–
79.4	158	0.398	0.8	631	N[C@@H](COCCCSCCNC[C@H](O)c1ccc(O)c2[nH]c(=O)sc12)c1ccccc1 [Example 24, 7-((1R)-2-{[2-({3-[(2R)-2-Amino-2-phenylethoxy]propyl}thio)ethyl]amino}-1-hydroxyethyl)-4-hydroxy-1,3-benzothiazol-2(3H)-one]	–
79.4	251	0.631	0.8	1260	C[C@@H](CNCCCSCCNC[C@H](O)c1ccc(O)c2[nH]c(=O)sc12)c1ccccc1 [Example 46, (R)-(+)-7-[(1R)-2-({2-[(3-{[2-(phenyl)propyl]amino}propyl)thio]ethyl}amino)-1-hydroxyethyl]-4-hydroxy-1,3-benzothiazol-2(3H)-one dihydrochloride]	–

Structure (SMILES)	IC50 [1, 4] [nM]	IC50 [2] [nM]	EC50 (Adrenergic β2) [nM]	β2 Int Act (Adrenergic β2)	IC50 [3] [nM]	IC50 [1] [nM]
O=c1[nH]c2c(O)ccc([C@@H](O)CNCCCSCCNCCc3ccccc3Cl)c2s1 [Example 31, 7-[(1R)-2-({3-[(2-{[2-(2-Chlorophenyl)ethyl]amino}ethyl)thio]propyl}amino)-1-hydroxyethyl]-4-hydroxy-1,3-benzothiazol-2(3H)-one]	39.8	12.6	0.398	0.8	1580	–
O=c1[nH]c2c(O)ccc([C@@H](O)CNCCSCCCNCCc3cccc(Cl)c3Cl)c2s1 [Example 38, 7-[(1R)-2-({2-[(3-{[2-(2,3-Dichlorophenyl)ethyl]amino}propyl)thio]ethyl}amino)-1-hydroxyethyl]-4-hydroxy-1,3-benzothiazol-2(3H)-one dihydrochloride]	–	158	1.58	0.9	398	–
O=c1[nH]c2c(O)ccc([C@@H](O)CNCCS(=O)(=O)CCCNCCc3cccc(Cl)c3)c2s1 [Example 42, 7-[(1R)-2-({2-[(3-{[2-(3-Chlorophenyl)ethyl]amino}propyl)sulfonyl]ethyl}amino)-1-hydroxyethyl]-4-hydroxy-1,3-benzothiazol-2(3H)-one dihydrochloride]	–	126	–	1	10000	794
